The source made the active and inactive calls. The calls are words filed in the database; no cut-off is given here.
Tests used:
Hepatocyte [1] = experiment: Inhibition of gluconeogenesis in Sprague-Dawley rat hepatocytes at 10 uM incubated for 1.5 hrs followed by sodium pyruvate and sodium lactate addition and measured after 4 hrs by colorimetric analysis relative to control; assay type: functional; settings: time 5.5 hrs
Mus musculus [2] = experiment: Inhibition of gluconeogenesis in CD-1 mouse assessed as decrease in blood glucose level at 50 mg/kg administered via gavage at 1 hr prior to pyruvate sodium challenge and measured for 2 hrs by pyruvate tolerance test; assay type: functional, organism-based; settings: time 3.0 hrs
Hepatocyte [3] = experiment: Inhibition of gluconeogenesis in Sprague-Dawley rat hepatocytes at 3 uM incubated for 1.5 hrs followed by sodium pyruvate and sodium lactate addition and measured after 4 hrs by colorimetric analysis relative to control; assay type: functional; settings: time 5.5 hrs
Hepatocyte [4] = experiment: Inhibition of gluconeogenesis in Sprague-Dawley rat hepatocytes at 1 uM incubated for 1.5 hrs followed by sodium pyruvate and sodium lactate addition and measured after 4 hrs by colorimetric analysis relative to control; assay type: functional; settings: time 5.5 hrs
Hepatocyte [5] = experiment: Inhibition of gluconeogenesis in Sprague-Dawley rat hepatocytes at 0.3 uM incubated for 1.5 hrs followed by sodium pyruvate and sodium lactate addition and measured after 4 hrs by colorimetric analysis relative to control; assay type: functional; settings: time 5.5 hrs
Mus musculus [6] = experiment: Antihyperglycemic activity in diabetic ob/ob mouse assessed as reduction in fasting blood glucose level at 5 mg/kg administered via gavage qd for 24 days and measured on day 24; assay type: functional; settings: po, 576 h, time 24 day
[7] = Toxicity in diabetic ob/ob mouse assessed as effect on daily food intake at 5 mg/kg administered via gavage qd for 24 days; assay type: organism-based; settings: in vivo, po, 576 h, time 24 day
[8] = Tmax in CD-1 mouse at 10 mg/kg, po by LC-MS/MS analysis; assay type: ADME, organism-based; settings: in vivo
[9] = AUC(last) in CD-1 mouse at 30 mg/kg, po by LC-MS/MS analysis; assay type: ADME, organism-based; design: dose 30 mg/kg, route po; settings: in vivo
[10] = Half life in CD-1 mouse at 1 mg/kg, iv by LC-MS/MS analysis; assay type: ADME, organism-based; settings: in vivo
[11] = Observed MRTinfinity in CD-1 mouse at 1 mg/kg, po by LC-MS/MS analysis; assay type: ADME, organism-based; settings: in vivo
[12] = AUC(last) in CD-1 mouse at 1 mg/kg, po by LC-MS/MS analysis; assay type: ADME, organism-based; design: dose 1 mg/kg, route po; settings: in vivo
[13] = AUC(last) in CD-1 mouse at 3 mg/kg, po by LC-MS/MS analysis; assay type: ADME, organism-based; design: dose 3 mg/kg, route po; settings: in vivo
[14] = AUC(last) in CD-1 mouse at 1 mg/kg, iv by LC-MS/MS analysis; assay type: ADME, organism-based; design: dose 1 mg/kg, route iv; settings: in vivo
[15] = Toxicity in diabetic ob/ob mouse assessed as effect on body weight at 5 mg/kg administered via gavage qd for 24 days; assay type: organism-based; settings: in vivo, po, 576 h, time 24 day
[16] = Observed clearance in CD-1 mouse at 1 mg/kg, iv by LC-MS/MS analysis; assay type: ADME, organism-based; settings: in vivo
[17] = Half life in CD-1 mouse at 10 mg/kg, po by LC-MS/MS analysis; assay type: ADME, organism-based; settings: in vivo
[18] = Observed MRTinfinity in CD-1 mouse at 1 mg/kg, iv by LC-MS/MS analysis; assay type: ADME, organism-based; settings: in vivo
[19] = Observed AUCinfinity in CD-1 mouse at 1 mg/kg, iv by LC-MS/MS analysis; assay type: ADME, organism-based; design: dose 1 mg/kg, route iv; settings: in vivo
[20] = Oral bioavailability in CD-1 mouse at 10 mg/kg by LC-MS/MS analysis; assay type: ADME, organism-based; settings: in vivo
[21] = Cmax in CD-1 mouse at 3 mg/kg, po by LC-MS/MS analysis; assay type: ADME, organism-based; design: dose 3 mg/kg, route po; settings: in vivo
[22] = Tmax in CD-1 mouse at 1 mg/kg, po by LC-MS/MS analysis; assay type: ADME, organism-based; settings: in vivo
[23] = Tmax in CD-1 mouse at 30 mg/kg, po by LC-MS/MS analysis; assay type: ADME, organism-based; settings: in vivo
[24] = Observed AUCinfinity in CD-1 mouse at 3 mg/kg, po by LC-MS/MS analysis; assay type: ADME, organism-based; design: dose 3 mg/kg, route po; settings: in vivo
[25] = Observed volume of distribution at steady state in CD-1 mouse at 1 mg/kg, iv by LC-MS/MS analysis; assay type: ADME, organism-based; settings: in vivo, read-out: Vdss
[26] = Oral bioavailability in CD-1 mouse at 1 mg/kg by LC-MS/MS analysis; assay type: ADME, organism-based; settings: in vivo
[27] = Half life in CD-1 mouse at 3 mg/kg, po by LC-MS/MS analysis; assay type: ADME, organism-based; settings: in vivo
[28] = Cmax in CD-1 mouse at 30 mg/kg, po by LC-MS/MS analysis; assay type: ADME, organism-based; design: dose 30 mg/kg, route po; settings: in vivo
[29] = Half life in CD-1 mouse at 1 mg/kg, po by LC-MS/MS analysis; assay type: ADME, organism-based; settings: in vivo
[30] = Observed AUCinfinity in CD-1 mouse at 10 mg/kg, po by LC-MS/MS analysis; assay type: ADME, organism-based; design: dose 10 mg/kg, route po; settings: in vivo
[31] = Cmax in CD-1 mouse at 1 mg/kg, po by LC-MS/MS analysis; assay type: ADME, organism-based; design: dose 1 mg/kg, route po; settings: in vivo
[32] = Oral bioavailability in CD-1 mouse at 3 mg/kg by LC-MS/MS analysis; assay type: ADME, organism-based; settings: in vivo
[33] = Observed MRTinfinity in CD-1 mouse at 3 mg/kg, po by LC-MS/MS analysis; assay type: ADME, organism-based; settings: in vivo
[34] = AUC(last) in CD-1 mouse at 10 mg/kg, po by LC-MS/MS analysis; assay type: ADME, organism-based; design: dose 10 mg/kg, route po; settings: in vivo
[35] = Cmax in CD-1 mouse at 10 mg/kg, po by LC-MS/MS analysis; assay type: ADME, organism-based; design: dose 10 mg/kg, route po; settings: in vivo
[36] = Oral bioavailability in CD-1 mouse at 30 mg/kg by LC-MS/MS analysis; assay type: ADME, organism-based; settings: in vivo
[37] = Observed MRTinfinity in CD-1 mouse at 30 mg/kg, po by LC-MS/MS analysis; assay type: ADME, organism-based; settings: in vivo
Mus musculus [38] = experiment: Antihyperglycemic activity in diabetic ob/ob mouse assessed as reduction in non-fasting blood glucose level at 5 mg/kg administered via gavage qd for 24 days and measured on day 24; assay type: functional; settings: po, 576 h, time 24 day
[39] = Half life in CD-1 mouse at 30 mg/kg, po by LC-MS/MS analysis; assay type: ADME, organism-based; settings: in vivo
[40] = Tmax in CD-1 mouse at 3 mg/kg, po by LC-MS/MS analysis; assay type: ADME, organism-based; settings: in vivo
Mus musculus [41] = experiment: Inhibition of gluconeogenesis in CD-1 mouse assessed as decrease in blood glucose level at 25 mg/kg administered via gavage at 1 hr prior to pyruvate sodium challenge and measured for 2 hrs by pyruvate tolerance test; assay type: functional, organism-based; settings: time 3.0 hrs
[42] = Observed MRTinfinity in CD-1 mouse at 10 mg/kg, po by LC-MS/MS analysis; assay type: ADME, organism-based; settings: in vivo
[43] = Observed AUCinfinity in CD-1 mouse at 30 mg/kg, po by LC-MS/MS analysis; assay type: ADME, organism-based; design: dose 30 mg/kg, route po; settings: in vivo
[44] = Observed AUCinfinity in CD-1 mouse at 1 mg/kg, po by LC-MS/MS analysis; assay type: ADME, organism-based; design: dose 1 mg/kg, route po; settings: in vivo

SMILES: COc1cc(CCC(=O)N(C)C)ccc1OCc1ccc(C(=O)O)o1
- fold change (FC) (Hepatocyte [1]): 0.9

SMILES: CNC(=O)Cc1ccc(OCc2ccc(C(=O)O)o2)c(OC)c1
- fold change (FC) (Hepatocyte [1]): 1.08

SMILES: CNC(=O)CCc1ccc(OCc2ccc(C(=O)O)o2)c(OC)c1
- fold change (FC) (Hepatocyte [1]): 0.98

SMILES: COc1cc(CC(=O)N(C)C)ccc1OCc1ccc(C(=O)O)o1
- fold change (FC) (Hepatocyte [1]): 1.15

SMILES: C=CCc1ccc(OCc2ccc(C(=O)O)s2)c(OC)c1
- fold change (FC) (Hepatocyte [1]): 1.05

SMILES: C=CCc1ccc(OCc2ccc(C(=O)NCc3ccccc3)o2)c(OC)c1
- fold change (FC) (Hepatocyte [1]): 0.97

SMILES: COc1cc(Cl)ccc1OCc1ccc(C(=O)O)o1
- fold change (FC) (Hepatocyte [1]): 0.33
- inhibition (Mus musculus [2]): Active
- fold change (FC) (Hepatocyte [3]): 0.51
- fold change (FC) (Hepatocyte [4]): 0.78
- fold change (FC) (Hepatocyte [5]): 1.02

SMILES: C=CCc1ccc(OC)c(OCc2ccc(C(=O)O)o2)c1
- fold change (FC) (Hepatocyte [1]): 1

SMILES: CCC(=O)c1ccc(OCc2ccc(C(=O)O)o2)c(OC)c1
- fold change (FC) (Hepatocyte [1]): 0.79

SMILES: CCCc1ccc(OCc2ccc(C(=O)O)o2)c(OC(C)C)c1
- fold change (FC) (Hepatocyte [1]): 1.25

SMILES: CCCc1ccc(OCc2ccc(C(=O)O)o2)cc1OC
- inhibition in vivo at 5 mg/kg (Mus musculus [6]): 40.5%
- Activity [7]: Non-Toxic
- Tmax [8]: 0.25 h
- AUC(0-t) [9]: 52700 ng·h/mL
- half-life [10]: 0.828 h
- MRT inf [11]: 2.07 h
- AUC(0-t) [12]: 678 ng·h/mL
- AUC(0-t) [13]: 2430 ng·h/mL
- AUC(0-t) [14]: 1220 ng·h/mL
- Activity [15]: Non-Toxic
- clearance [16]: 13.5 mL/min/kg
- half-life [17]: 3.12 h
- MRT inf [18]: 0.798 h
- AUC(0-inf) [19]: 1250 ng·h/mL
- bioavailability [20]: 78.9%
- Cmax [21]: 1460 ng/mL
- fold change (FC) (Hepatocyte [1]): 0.03
- Tmax [22]: 0.25 h
- Tmax [23]: 0.25 h
- AUC(0-inf) [24]: 2480 ng·h/mL
- Vd [25]: 0.65 L/kg
- bioavailability [26]: 55.7%
- half-life [27]: 2.26 h
- inhibition (Mus musculus [2]): Active
- Cmax [28]: 41000 ng/mL
- half-life [29]: 1.8 h
- AUC(0-inf) [30]: 9620 ng·h/mL
- Cmax [31]: 547 ng/mL
- bioavailability [32]: 66.7%
- fold change (FC) (Hepatocyte [3]): 0.16
- MRT inf [33]: 2.74 h
- AUC(0-t) [34]: 9590 ng·h/mL
- Cmax [35]: 7580 ng/mL
- bioavailability [36]: 144%
- MRT inf [37]: 1.7 h
- inhibition in vivo at 5 mg/kg (Mus musculus [38]): 34.9%
- fold change (FC) (Hepatocyte [4]): 0.64
- half-life [39]: 3.15 h
- Tmax [40]: 0.25 h
- inhibition (Mus musculus [41]): Active
- MRT inf [42]: 2.31 h
- fold change (FC) (Hepatocyte [5]): 0.75
- AUC(0-inf) [43]: 52800 ng·h/mL
- AUC(0-inf) [44]: 709 ng·h/mL

SMILES: C=CCc1ccc(OCc2ncc(C(=O)O)s2)c(OC)c1
- fold change (FC) (Hepatocyte [1]): 1.33

SMILES: C=CCc1ccc(OCc2ccc(C(=O)NCCO)o2)c(OC)c1
- fold change (FC) (Hepatocyte [1]): 0.82

SMILES: C=CCc1cccc(OC)c1OCc1ccc(C(=O)O)o1
- fold change (FC) (Hepatocyte [1]): 0.78

SMILES: C=CCc1ccc(OCc2ccc(C(=O)N3CCOCC3)o2)c(OC)c1
- fold change (FC) (Hepatocyte [1]): 0.97

SMILES: C=CCc1ccc(OCc2cccc(C(=O)O)c2)c(OC)c1
- fold change (FC) (Hepatocyte [1]): 1.06

SMILES: COc1ccccc1OCc1ccc(C(=O)O)o1
- fold change (FC) (Hepatocyte [1]): 0.99

SMILES: CCCc1ccc(OCc2ccc(C(=O)O)o2)c(OCCn2cccc2)c1
- fold change (FC) (Hepatocyte [1]): 1.28

From ChEMBL document CHEMBL5344411, “Phenotypic screening-based drug discovery of furan-2-carboxylic acid derivatives for the amelioration of type 2 diabetes mellitus (T2DM)” (Eur J Med Chem, 2023)
